Usually EC50 stands for the concentration needed to bring the measured effect to its halfway point. Lower therefore signals an effect from little substance.

The source of these data is patent US20130090364A1, “ANALOGUES FOR THE TREATMENT OR PREVENTION OF FLAVIVIRUS INFECTIONS” (priority 2010, published 2013).

In one assay the test system is HCV (1b) RNA replication (replicon I389Luc-ubi-neo/NS3-3′/5.1). Description: Cell-based luciferase reporter HCV (1b) RNA replication assay, Huh-ET cells. The conditions noted are these: Hepatitis C virus; Table 2A; HCV genotype 1b replicon. From the text:
Cell-Based Luciferase Reporter HCV (Ib) RNA Replication Assay Cell Culture
Replicon cell lines Huh-5.2 are derived from the Huh-7 hepatocarcinoma cell line are maintained in culture as generally described in Krieger, N; Lohmann, V; Bartenschlager, R. Enhancement of hepatitis C virus RNA replication by cell culture-adaptive mutations. J. Virol. 2001, 75, 4614-4624. The Huh-5.2 cells contain the highly cell culture-adapted replicon I389Luc-ubi-neo/NS3-3′/5.1 construct that carries, in addition to the neomycin gene, an integrated copy to the firefly luciferase gene (Krieger, N; Lohmann, V; Bartenschlager, R. Enhancement of hepatitis C virus RNA replication by cell culture-adaptive mutations. J. Virol. 2001, 75, 4614-4624). This cell line allows measurement of HCV RNA replication and translation by measuring luciferase activity. It has been previously shown that the luciferase activity tightly follows the replicon RNA level in these cells (Krieger, N; Lohmann, V; Bartenschlager, R. Enhancement of hepatitis C virus RNA replication by cell culture-adaptive mutations. J. Virol. 2001, 75, 4614-4624). The Huh-ET cell line has the same features as those mentioned for Huh-5.2 cell line, except that ET cells are more robust and contain an adaptative mutation in the HCV NS4B gene instead of NSSA. Both cell lines are maintained in cultures at a sub-confluent level (<85%) as the level of replicon RNA is highest in actively proliferating cells. The culture media used for cell passaging consist of DMEM (Gibco BRL Laboratories, Mississauga, ON, Canada) supplemented with 10% foetal bovine serum with 1% penicilin/streptomycin, 1% glutamine, 1% sodium pyruvate, 1% non-essential amino acids, and 180 μg/ml of G418 final concentration. Cells are incubated at 37° C., in an atmosphere of 5% CO2 and passaged twice a week to maintain sub-confluence.
Approximately 3000 viable Huh-ET cells (100 μl) are plated per well in a white opaque 96-well microtiter plate. The cell culture media used for the assay is the same as described above except that it contains no G418 and no phenol red. After an incubation period of 3-4 hours at 37° C. in a 5% CO2 incubator, compounds (100 μl) are added at various concentrations. Cells are then further incubated for 4 days at 37° C. in a 5% CO2 incubator. Thereafter, the culture media is removed and cells are lysed by the addition of 95 μL of the luciferase buffer (luciferin substrate in buffered detergent). Cell lysates are incubated at room temperature and protected from direct light for at least 10 minutes. Plates are read for luciferase counts using a luminometer (Wallac MicroBeta Trilux, Perkin Elmer™, MA, USA).
Curves are fitted to data points using nonlinear regression analysis, and IC50s are interpolated from the resulting curve using GraphPad Prism software, version 2.0 (GraphPad Software Inc., San Diego, Calif., USA).
`COC(=O)N[C@H](C(=O)N1C[C@@H](C)C[C@H]1c1cc2ccc(-c3ccc(-c4cc5[nH]c([C@@H]6C[C@H](C)CN6C(=O)[C@@H](NC(=O)OC)C(C)C)nc5s4)cc3)cc2[nH]1)C(C)C` [Compound 10] gave an EC50 of no more than 5 nM.
In the case of `COC(=O)N[C@H](C(=O)N1C[C@@H](C)C[C@H]1c1nc2sc(-c3ccc(-c4ccc5nc([C@@H]6C[C@H](C)CN6C(=O)[C@@H](NC(=O)OC)C(C)C)n(C)c5c4)cc3)cc2[nH]1)C(C)C` [Compound 9], the 50% effective concentration (EC50) is no more than 5 nM.
The same measure, in the same setting: under `COC(=O)N[C@H](C(=O)N1C[C@@H](C)C[C@H]1c1nc2sc(-c3ccc(-c4ccc5[nH]c([C@@H]6CC[C@H](C)N6C(=O)[C@@H](NC(=O)OC)C(C)C)nc5c4)cc3)cc2[nH]1)C(C)C` [Compound 7] stands no more than 5 nM.
On the same count and under the same terms, the result for `COC(=O)N[C@H](C(=O)N1C[C@@H](C)C[C@H]1c1nc2cc(-c3cc4sc(-c5cc6[nH]c([C@@H]7C[C@H](C)CN7C(=O)[C@@H](NC(=O)OC)C(C)C)nc6s5)cc4s3)ccc2[nH]1)C(C)C` [Compound 27] reads no more than 5 nM.
The same measure, in the same setting: under `COC(=O)N[C@H](C(=O)N1C[C@@H](C)C[C@H]1c1nc(-c2csc3ccc(-c4ccc(-c5cc6nc([C@@H]7C[C@H](C)CN7C(=O)[C@@H](NC(=O)OC)C(C)C)[nH]c6s5)cc4)cc23)c[nH]1)C(C)C` [Compound 23] stands 5 to 5000 nM.
`COC(=O)N[C@H](C(=O)N1C[C@@H](C)C[C@H]1c1nc2cc(/C=C/c3ccc(-c4cc5[nH]c([C@@H]6C[C@H](C)CN6C(=O)[C@@H](NC(=O)OC)C(C)C)nc5s4)cc3)ccc2[nH]1)C(C)C` [Compound 17]: the EC50 was no more than 5 nM.
Still for that read-out and setting: under `COC(=O)N[C@H](C(=O)N1C[C@@H](C)C[C@H]1c1nc2sc(-c3ccc(-c4ccc(-c5cc6[nH]c([C@@H]7C[C@H](C)CN7C(=O)[C@@H](NC(=O)OC)C(C)C)nc6s5)s4)cc3)cc2[nH]1)C(C)C` [Compound 30] stands no more than 5 nM; under `COC(=O)N[C@H](C(=O)N1C[C@@H](C)C[C@H]1c1nc2cc(-c3ccc(-c4cc5[nH]c([C@@H]6C[C@H](C)CN6C(=O)[C@@H](NC(=O)OC)C(C)C)nc5s4)cc3)ccc2[nH]1)C(C)C` [Compound 13], no more than 5 nM.
Regarding `COC(=O)N[C@H](C(=O)N1C[C@@H](C)C[C@H]1c1ncc(C#Cc2ccc(-c3cc4[nH]c([C@@H]5C[C@H](C)CN5C(=O)[C@@H](NC(=O)OC)C(C)C)nc4s3)s2)[nH]1)C(C)C` [Compound 31], the half-maximal effective concentration (EC50) was no more than 5 nM.
Turning to `COC(=O)N[C@H](C(=O)N1C[C@@H](C)C[C@H]1c1ncc(-c2ccc(-c3ccc(-c4cc5[nH]c([C@@H]6C[C@H](C)CN6C(=O)[C@@H](NC(=O)OC)C(C)C)nc5s4)cc3)s2)[nH]1)C(C)C` [Compound 25], the EC50 was no more than 5 nM.
Same read-out and setting: the result for `COC(=O)N[C@H](C(=O)N1C[C@@H](C)C[C@H]1c1ncc(C#Cc2ccc(-c3ccc(-c4cc5[nH]c([C@@H]6C[C@H](C)CN6C(=O)[C@@H](NC(=O)OC)C(C)C)nc5s4)s3)cc2)[nH]1)C(C)C` [Compound 21] reads no more than 5 nM.
Still for that read-out and setting: the result for `COC(=O)N(C)[C@H](C(=O)N1C[C@@H](C)C[C@H]1c1nc2sc(C#CC#Cc3cc4[nH]c([C@@H]5C[C@H](C)CN5C(=O)[C@H](C(C)C)N(C)C(=O)OC)nc4s3)cc2[nH]1)C(C)C` [Compound 5] reads no more than 5 nM.
Turning to `COC(=O)N[C@H](C(=O)N1C[C@@H](C)C[C@H]1c1nc2cc(C#Cc3cc4[nH]c([C@@H]5C[C@H](C)CN5C(=O)[C@@H](NC(=O)OC)C(C)C)nc4s3)ccc2[nH]1)C(C)C` [Compound 3], the EC50 was no more than 5 nM.
Still for that read-out and setting: the result for `COC(=O)N[C@H](C(=O)N1C[C@@H](C)C[C@H]1c1ncc(-c2cc3sc(-c4ccc(-c5cc6[nH]c([C@@H]7C[C@H](C)CN7C(=O)[C@@H](NC(=O)OC)C(C)C)nc6s5)cc4)cc3s2)[nH]1)C(C)C` [Compound 29] reads no more than 5 nM; that for `COC(=O)N[C@H](C(=O)N1C[C@@H](C)C[C@H]1c1nc(C)c(-c2ccc(-c3ccc(-c4cc5nc([C@@H]6C[C@H](C)CN6C(=O)[C@@H](NC(=O)OC)C(C)C)[nH]c5s4)cc3)cc2)[nH]1)C(C)C` [Compound 28], no more than 5 nM; that for `COC(=O)N[C@H](C(=O)N1C[C@@H](C)C[C@H]1c1nc2cc(-c3ccc(-c4ccc(-c5cc6nc([C@@H]7C[C@H](C)CN7C(=O)[C@@H](NC(=O)OC)C(C)C)[nH]c6s5)cc4)cc3)sc2[nH]1)C(C)C` [Compound 24], no more than 5 nM.
As to `COC(=O)N[C@H](C(=O)N1C[C@@H](C)C[C@H]1c1ncc(-c2ccc(-c3ccc(-c4cc5[nH]c([C@@H]6C[C@H](C)CN6C(=O)[C@@H](NC(=O)OC)C(C)C)nc5s4)cc3)cc2)[nH]1)C(C)C` [Compound 11], the concentration for a half-maximal effect (EC50) is no more than 5 nM.
On the same count and under the same terms, the result for `COC(=O)N[C@H](C(=O)N1C[C@@H](C)C[C@H]1c1nc2sc(-c3ccc(-c4ccc5nc([C@@H]6CC[C@H](C)N6C(=O)[C@@H](NC(=O)OC)C(C)C)oc5c4)cc3)cc2[nH]1)C(C)C` [Compound 8] reads no more than 5 nM; that for `COC(=O)N[C@H](C(=O)N1C[C@@H](C)C[C@H]1c1nc2cc(C#Cc3ccc(-c4cc5[nH]c([C@@H]6C[C@H](C)CN6C(=O)[C@@H](NC(=O)OC)C(C)C)nc5s4)cc3)ccc2[nH]1)C(C)C` [Compound 14], no more than 5 nM.
Same read-out and setting: the result for `COC(=O)N[C@H](C(=O)N1C[C@@H](C)C[C@H]1c1nc2sc(C#CC#Cc3cc4[nH]c([C@@H]5C[C@H](C)CN5C(=O)[C@@H](NC(=O)OC)C(C)C)nc4s3)cc2[nH]1)C(C)C` [Compound 4, dimethyl (2S,2′S)-1,1′-((3S,3′S,5S,5′S)-5,5′-(5,5′-(buta-1,3-diyne-1,4-diyl)bis(1H-thieno[2,3-d]imidazole-5,2-diyl))bis(3-methylpyrrolidine-5,1-diyl))bis(3-methyl-1-oxobutane-2,1-diyl)dicarbamate] reads no more than 5 nM.
The same measure, in the same setting: under `COC(=O)N[C@H](C(=O)N1C[C@@H](C)C[C@H]1c1nc(-c2cc3sccc3s2)c(-c2ccc(-c3cc4nc([C@@H]5C[C@H](C)CN5C(=O)[C@@H](NC(=O)OC)C(C)C)[nH]c4s3)cc2)[nH]1)C(C)C` [Compound 16] stands no more than 5 nM.

The same assay, now with this note: Hepatitis C virus; Table 2B; HCV genotype 1b replicon.
`COC(=O)N[C@H](C(=O)N1C[C@@H](C)C[C@H]1c1nc(-c2ccc(-c3ccc(-c4cc5[nH]c([C@@H]6C[C@H](C)CN6C(=O)[C@@H](NC(=O)OC)C(C)C)nc5s4)c(F)c3)cc2)c[nH]1)C(C)C` [Compound 7a] yielded an EC50 of no more than 5 nM.
The compound `COC(=O)N[C@H](C(=O)N1C[C@@H](C)C[C@H]1c1nc(-c2ccc(-c3ccc(-c4cc5[nH]c([C@@H]6C[C@H](C)CN6C(=O)[C@@H](NC(=O)OC)C(C)C)nc5s4)cc3F)cc2)c[nH]1)C(C)C` [Compound 6a] showed a half-maximal effective concentration (EC50) of no more than 5 nM.
Same read-out and setting: the result for `COC(=O)N[C@H](C(=O)N1C[C@@H](C)C[C@H]1c1ncc(-c2ccc(-c3ccc(-c4cc5[nH]c([C@@H]6C[C@H](C)CN6C(=O)[C@@H](NC(=O)OC)C(C)C)nc5s4)cc3)c(C)c2)[nH]1)C(C)C` [Compound 12a] reads no more than 5 nM; that for `C[C@H]1C[C@@H](c2ncc(-c3ccc(-c4ccc(-c5cc6[nH]c([C@@H]7C[C@H](C)CN7C(=O)OC(C)(C)C)nc6s5)cc4)c(F)c3)[nH]2)N(C(=O)OC(C)(C)C)C1` [Compound 4a], no more than 5 nM; that for `COC(=O)N[C@H](C(=O)N1C[C@@H](C)C[C@H]1c1nc(Cl)c(-c2ccc(-c3ccc(-c4cc5nc([C@@H]6C[C@H](C)CN6C(=O)[C@@H](NC(=O)OC)C(C)C)[nH]c5s4)cc3)cc2)[nH]1)C(C)C` [Compound 1a], no more than 5 nM.
On the same count and under the same terms, under `COC(=O)N[C@H](C(=O)N1C[C@@H](C)C[C@H]1c1nc(Cl)c(-c2ccc(-c3ccc(-c4sc5[nH]c([C@@H]6C[C@H](C)CN6C(=O)[C@@H](NC(=O)OC)C(C)C)nc5c4Cl)cc3)cc2)[nH]1)C(C)C` [Compound 2a] stands no more than 5 nM; under `COC(=O)N[C@H](C(=O)N1C[C@@H](C)C[C@@H]1c1nc2cc(-c3ccc(-c4ccc(-c5c[nH]c([C@@H]6C[C@H](C)CN6C(=O)[C@@H](NC(=O)OC)C(C)C)n5)cc4)cc3C)sc2[nH]1)C(C)C` [Compound 5a], no more than 5 nM; under `COC(=O)N[C@H](C(=O)N1C[C@@H](C)C[C@H]1c1nc(I)c(-c2ccc(-c3ccc(-c4cc5nc([C@@H]6C[C@H](C)CN6C(=O)[C@@H](NC(=O)OC)C(C)C)[nH]c5s4)cc3)cc2)[nH]1)C(C)C` [Compound 3a], no more than 5 nM.
